Test results reported in patent US9090593B2, “Bicyclic compounds as Pim inhibitors” (AMGEN INC., priority 2010, dated 2015).

Experiments:
KMS-Cell = test: KMS cell IC50 (Table 4); type: cell-based; settings: KMS cells
[1] = target: T1, Pim-2 stably transfected into the U2OS human osteogenic sarcoma line (Homo sapiens, UniProt Q9P1W9); test: Pim cell assay, phospho-BAD normalized against total BAD, U2OS stably transfected with Pim-2; type: cell-based; settings: U2OS stably transfected with Pim-2; phospho-BAD normalized against total BAD; 29 min incubation; read-out: Pim2_Cell_IC50_
T1 construct: expressed in transfected cells; host or cells: U2OS human osteogenic sarcoma line
T1 sequence (Q9P1W9 whole entry): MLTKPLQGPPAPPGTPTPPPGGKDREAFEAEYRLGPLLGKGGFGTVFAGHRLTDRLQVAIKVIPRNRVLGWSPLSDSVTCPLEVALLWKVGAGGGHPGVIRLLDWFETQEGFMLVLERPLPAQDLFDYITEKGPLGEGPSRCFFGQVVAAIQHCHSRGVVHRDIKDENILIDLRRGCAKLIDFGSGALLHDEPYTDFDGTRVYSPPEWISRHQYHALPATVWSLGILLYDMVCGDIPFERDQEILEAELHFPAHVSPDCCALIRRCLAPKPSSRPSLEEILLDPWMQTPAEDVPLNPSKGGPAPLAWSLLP
Method in brief: (§1)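 U2OS cells stably expressing Pim-1 or Pim-2 were plated overnight at 37 °C, then dosed over a 10-point curve (final 0.3% DMSO; DMSO alone as high control). Lysates assayed for phospho- and total BAD by Meso Scale immunoassay; % phosphoprotein = (2×phospho)/(phospho+total)×100.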

[2] = target: T2, full length recombinant Pim-1 protein (Homo sapiens, UniProt P11309); test: Pim-1 enzyme assay (HTRF, phosphorylation of biotinylated-BAD (S112) peptide); type: biochemical; settings: read-out: Pim_1_IC50
T2 construct: by full length recombinant Pim-1, Pim-2, or Pim-3 protein; hexahistidine tag followed by a thrombin cleavage site (N); made in house; host or cells: Sf9 (baculovirus) or E. coli (pET28)
T2 sequence (P11309 whole entry): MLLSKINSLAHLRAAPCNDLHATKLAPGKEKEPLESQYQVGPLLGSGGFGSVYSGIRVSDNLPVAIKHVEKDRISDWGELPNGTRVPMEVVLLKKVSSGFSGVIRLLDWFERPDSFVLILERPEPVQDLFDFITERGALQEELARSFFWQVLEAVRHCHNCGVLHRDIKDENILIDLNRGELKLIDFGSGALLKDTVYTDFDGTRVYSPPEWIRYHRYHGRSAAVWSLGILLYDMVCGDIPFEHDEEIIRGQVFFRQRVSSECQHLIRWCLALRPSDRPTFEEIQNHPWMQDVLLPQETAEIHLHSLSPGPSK
Method in brief: (§2)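 Inhibition is reported as IC50 from a 4-parameter logistic fit of percent-of-control HTRF signal, which tracks phospho-BAD (S112) formed by full-length human Pim-1 or Pim-2. Reactions ran in 60 mM Hepes, pH 7.0, 0.05% BSA, 2 mM DTT.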

[3] = target: T3, full length recombinant Pim-2 protein (Homo sapiens, UniProt Q9P1W9); test: Pim-2 enzyme assay (HTRF, phosphorylation of biotinylated-BAD (S112) peptide); type: biochemical; settings: read-out: Pim2_IC50
T3 construct: by full length recombinant Pim-1, Pim-2, or Pim-3 protein; hexahistidine tag followed by a thrombin cleavage site (N); made in house; host or cells: Sf9 (baculovirus) or E. coli (pET28)
T3 sequence (Q9P1W9 whole entry): as the sequence (Q9P1W9 whole entry) above
Method in brief: as §2

[4] = target: T4, Pim-1 stably transfected into the U2OS human osteogenic sarcoma line (Homo sapiens, UniProt P11309); test: Pim cell assay, phospho-BAD normalized against total BAD, U2OS stably transfected with Pim-1; type: cell-based; settings: U2OS stably transfected with Pim-1; phospho-BAD normalized against total BAD; 29 min incubation; read-out: Pim1_Cell_IC50_
T4 construct: expressed in transfected cells; host or cells: U2OS human osteogenic sarcoma line
T4 sequence (P11309 whole entry): as the sequence (P11309 whole entry) above
Method in brief: as §1

Row | Compound | IC50 (KMS-Cell) [nM] | IC50 [1] [nM] | IC50 [2] [nM] | IC50 [3] [nM] | IC50 [4] [nM]
1 | CC1CCNCC1Oc1cncc(-c2n[nH]c3ccc(-c4c(F)cccc4F)cc23)n1 (single isomer, unassigned) [Example 424] | 6280 | 2470 | 1 | 4 | 433
2 | N#CCc1ccc2[nH]nc(-c3cncc(O[C@H]4CNCCC45CC5)n3)c2c1 [Example 269, (3-(6-((4R)-6-azaspiro[25]oct-4-yloxy)-2-pyrazinyl)-1H-indazol-5-yl)acetonitrile 2,2,2-trifluoroacetate] | 7380 |  | 20 | 99 | 
3 | O=c1cc(-c2n[nH]c3ccc(-c4c(F)cccc4F)cc23)nc(N[C@@H]2CCCNC2)[nH]1 [Example 282, (R)-6-(5-(2,6-difluorophenyl)-1H-indazol-3-yl)-2-(piperidin-3-ylamino)pyrimidin-4(3H)-one] | 2650 | > 10000 |  |  | 1170
4 | c1cc(-c2ccc3[nH]cc(-c4cncc(O[C@@H]5CCCNC5)n4)c3c2)cc(-c2cc[nH]n2)c1 [Example 351] | > 31600 |  | 20 | 178 | 
5 | c1cc(-c2ccc3[nH]cc(-c4cncc(O[C@@H]5CCCNC5)n4)c3c2)cc(-c2nnn[nH]2)c1 [Example 355] | > 31600 |  | 20 | 104 | 
6 | c1cc(-c2ccc3[nH]cc(-c4cncc(O[C@@H]5CCCNC5)n4)c3c2)cc(-c2ccno2)c1 [Example 356] | 12600 |  | 6 | 41 | 
7 | Cc1nc(-c2cccc(-c3ccc4[nH]cc(-c5cncc(O[C@@H]6CCCNC6)n5)c4c3)c2)cs1 [Example 357] | > 31600 |  | 13 | 179 | 
8 | c1ccc(-c2ccc3[nH]cc(-c4cncc(O[C@@H]5CCCNC5)n4)c3c2)cc1 [Example 358] | 8520 |  | 4 | 20 | 
9 | c1cc2[nH]nc(-c3cncc(OC4CCNCC4)n3)c2cc1-c1cncc(C2CC2)n1 [Example 364, 5-(6-cyclopropyl-2-pyrazinyl)-3-(6-(4-piperidinyloxy)-2-pyrazinyl)-1H-indazole] | 5850 | 3460 |  | 5 | 22
10 | CC[C@@H]1CCNC[C@H]1Oc1cncc(-c2n[nH]c3ccc(-c4c(F)cccc4F)cc23)n1 [Example 397] | 14300 |  | 20 | 144 | 
11 | CC[C@H]1CCNC[C@@H]1Oc1cncc(-c2n[nH]c3ccc(-c4c(F)cccc4F)cc23)n1 [Example 398, 5-(2,6-difluorophenyl)-3-(6-(((3R,4S)-4-ethyl-3-piperidinyl)oxy)-2-pyrazinyl)-1H-indazole] | 10700 |  | 9 | 12 | 
12 | Clc1ccccc1-c1ccc2[nH]nc(-c3cncc(O[C@H]4CNCCC45CC5)n3)c2c1 [Example 406] | 2360 | 5310 | 2 | 1 | 460
13 | N#Cc1ccccc1-c1ccc2[nH]nc(-c3cncc(O[C@H]4CNCCC45CC5)n3)c2c1 [Example 408] | 1300 |  | 1 | 1 | 
14 | N#Cc1cccc(F)c1-c1ccc2[nH]nc(-c3cncc(O[C@H]4CNCCC45CC5)n3)c2c1 [Example 409] | 2680 |  | 1 | 1 | 
15 | N#Cc1ncccc1-c1ccc2[nH]nc(-c3cncc(O[C@H]4CNCCC45CC5)n3)c2c1 [Example 410] | 1750 |  | 9 | 7 | 
16 | N#Cc1ccncc1-c1ccc2[nH]nc(-c3cncc(O[C@H]4CNCCC45CC5)n3)c2c1 [Example 411] | 1220 |  | 4 | 12 | 
17 | Fc1ccc(F)c(-c2ccc3[nH]nc(-c4cncc(O[C@H]5CNCCC56CC6)n4)c3c2)c1 [Example 442] | 6430 |  | 2 | 4 | 
18 | Fc1ccc(Cl)cc1-c1ccc2[nH]nc(-c3cncc(O[C@H]4CNCCC45CC5)n3)c2c1 [Example 443] | 4640 |  | 1 | 5 | 

Row | Compound | IC50 (KMS-Cell) [nM] | IC50 [1] [nM] | IC50 [2] [nM] | IC50 [3] [nM] | IC50 [4] [nM]
19 | Fc1cccc(F)c1-c1ccc2[nH]nc(-c3cncc(OC4CNCC5CC54)n3)c2c1 (stereo not drawn) [Example 444] | 5050 |  | 4 | 28 | 
20 | c1cc2[nH]nc(-c3cncc(O[C@H]4CNCCC45CC5)n3)c2cc1C1CC1 [Example 446] | 1730 |  | 3 | 5 | 
21 | c1cc2[nH]nc(-c3cncc(O[C@H]4CNCCC45CC5)n3)c2cc1C1CCCC1 [Example 447] | 3160 |  | 4 | 4 | 
22 | Fc1ccnc(F)c1-c1ccc2[nH]nc(-c3cncc(O[C@H]4CNCCC45CC5)n3)c2c1 [Example 451] | 1470 |  | 3 | 9 | 
23 | Fc1cccc(F)c1-c1ccc2[nH]nc(-c3cncc(OC4CNCC5CC54)n3)c2c1 (stereo not drawn) [Example 452] | 9410 |  | 20 | 97 | 
24 | c1cc2[nH]nc(-c3cncc(O[C@H]4CNCCC45CC5)n3)c2cc1C1CCC1 [Example 453] | 4190 |  | 4 | 7 | 
25 | N#Cc1ccc(-c2ccc3[nH]nc(-c4cncc(O[C@H]5CNCCC56CC6)n4)c3c2)c(F)c1 [Example 456] | 5490 |  | 4 | 3 | 
26 | NS(=O)(=O)c1ccc(-c2ccc3[nH]nc(-c4cncc(O[C@H]5CNCCC56CC6)n4)c3c2)c(F)c1 [Example 463] | 1610 |  | 2 | 1 | 
27 | CS(=O)(=O)c1cc(F)c(-c2ccc3[nH]nc(-c4cncc(O[C@H]5CNCCC56CC6)n4)c3c2)c(F)c1 [Example 467] | 546 |  | 3 | 3 | 
28 | COC(=O)c1ccc2[nH]nc(-c3ccnc(NC4CCNCC4)n3)c2c1 [Example 489] | 1690 | 4480 | 2 | 3 | 202
29 | COC(=O)c1ccc2[nH]nc(-c3ccnc(N4CCC(N)CC4)n3)c2c1 [Example 491] | 1450 |  | 4 | 8 | 
30 | O=C(O)c1ccc2[nH]nc(-c3cncc(N[C@@H]4CCCNC4)n3)c2c1 [Example 495] | > 15800 |  | 70 | 159 | 
31 | CN(C)c1nc(-c2c[nH]c3ccc(-c4cncc(C5CC5)n4)cc23)cc(=O)[nH]1 [Example 527] | > 15800 | > 31600 | 13 | 79 | 354
32 | O=c1cc(-c2n[nH]c3ccc(-c4c(F)cccc4F)cc23)nc(O[C@@H]2CCCNC2)[nH]1 [Example 529] | 2620 |  | 2 | 2 | 
33 | c1coc(-c2ccc3[nH]nc(-c4cncc(N[C@@H]5CCCNC5)n4)c3c2)n1 [Example 541] | 6040 |  | 2 | 24 | 
34 | c1coc(-c2ccc3[nH]cc(-c4cncc(N[C@@H]5CCCNC5)n4)c3c2)n1 [Example 542] | 15900 |  | 2 | 24 | 
35 | O=c1cc(-c2n[nH]c3ccc(-c4c(F)cccc4F)cc23)nc(OC2CNCCC2F)[nH]1 (stereo not drawn) [Example 554] | 6260 |  | 7 | 10 | 
